Test results: ChEMBL document CHEMBL1201862, “PubChem BioAssay data set” (2004)
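Growth conditions: 96-well plates. Treatment: test compound, 48 hours, 5 concentrations. Analysis: linear interpolation between bracketing concentrations; unreached endpoints set to highest concentration. The concentration for 50% growth inhibition is given as GI50.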 The source made the active and inactive calls. No stated cut-off is given here; in the data, active = GI50 up to about 1.1 µM and inactive = higher.

Tests used:
Assay in all cases: inhibition of tumour cell growth, NCI panel, 48 h
SF-539 = tested on: SF-539
M14 = tested on: M14
SK-MEL-28 = tested on: SK-MEL-28
TK-10 = tested on: TK-10
HT-29 = tested on: HT-29
ACHN = tested on: ACHN
NCI-H522 = tested on: NCI-H522
SNB-19 = tested on: SNB-19
U-251 = tested on: U-251
SK-MEL-2 = tested on: SK-MEL-2
RXF 393 = tested on: RXF 393
DLD-1 = tested on: DLD-1
OVCAR-8 = tested on: OVCAR-8
A498 = tested on: A498
HL-60 = tested on: HL-60
SK-OV-3 = tested on: SK-OV-3
DU-145 = tested on: DU-145
MDA-MB-435 = tested on: MDA-MB-435
T47D = tested on: T47D
MCF7 = tested on: MCF7

Structure (SMILES) | GI50 (SF-539) | GI50 (M14) | GI50 (SK-MEL-28) | GI50 (TK-10) | GI50 (HT-29) | GI50 (ACHN) | GI50 (NCI-H522) | GI50 (SNB-19) | GI50 (U-251) | GI50 (SK-MEL-2) | GI50 (RXF 393) | GI50 (DLD-1) | GI50 (OVCAR-8) | GI50 (A498) | GI50 (HL-60) | GI50 (SK-OV-3) | GI50 (DU-145) | GI50 (MDA-MB-435) | GI50 (T47D) | GI50 (MCF7)
COC(=O)c1cc2ccccc2c2nc3ccccc3c(Cl)c12 | 16.6 µM (inactive) | > 100 µM (inactive) | > 100 µM (inactive) | > 100 µM (inactive) | > 100 µM (inactive) | > 100 µM (inactive) | 32.9 µM (inactive) | 37.4 µM (inactive) | > 100 µM (inactive) | > 100 µM (inactive) | > 100 µM (inactive) | > 100 µM (inactive) | > 100 µM (inactive) | > 100 µM (inactive) | > 100 µM (inactive) | – | – | – | – | –
COc1ccc2c(c1)Cc1c-2[nH]c2cc3c(cc2c1=O)OCO3 | 14.3 µM (inactive) | 14.2 µM (inactive) | 15.8 µM (inactive) | 9.31 µM (inactive) | 6.44 µM (inactive) | 7.94 µM (inactive) | 10.8 µM (inactive) | 23 µM (inactive) | 9.89 µM (inactive) | 6.14 µM (inactive) | 4.01 µM (inactive) | 13.9 µM (inactive) | 19.1 µM (inactive) | – | 6.12 µM (inactive) | 22.3 µM (inactive) | – | – | – | –
C[N+](C)(C)CC1CCCCC1=O (centres undefined) | > 100 µM (inactive) | 16.6 µM (inactive) | 17.3 µM (inactive) | 37.1 µM (inactive) | 19.6 µM (inactive) | 16.4 µM (inactive) | 19.1 µM (inactive) | > 100 µM (inactive) | > 100 µM (inactive) | – | 18.4 µM (inactive) | 19.8 µM (inactive) | 19.2 µM (inactive) | – | 13.9 µM (inactive) | > 100 µM (inactive) | – | – | – | –
[O-]c1c2c(nn1-c1ccccc1)c1ccccc1c[n+]2Cc1ccccc1 | > 100 µM (inactive) | > 100 µM (inactive) | > 100 µM (inactive) | > 100 µM (inactive) | > 100 µM (inactive) | > 100 µM (inactive) | 73.6 µM (inactive) | > 100 µM (inactive) | > 100 µM (inactive) | > 100 µM (inactive) | 0.13 µM (active) | > 100 µM (inactive) | > 100 µM (inactive) | – | > 100 µM (inactive) | > 100 µM (inactive) | – | – | – | –
CSC(C1c2ccccc2N(c2ccc(C)cc2)c2[nH]c(=O)n(C)c(=O)c21)S(=O)(=O)c1ccc(C)cc1 (centres undefined) | > 100 µM (inactive) | > 100 µM (inactive) | > 100 µM (inactive) | > 100 µM (inactive) | > 100 µM (inactive) | – | 63.8 µM (inactive) | > 100 µM (inactive) | > 100 µM (inactive) | > 100 µM (inactive) | – | > 100 µM (inactive) | > 100 µM (inactive) | > 100 µM (inactive) | 43.5 µM (inactive) | > 100 µM (inactive) | – | – | – | –
O=C1C(Cl)C(c2cccc([N+](=O)[O-])c2)N1n1cnc2ccccc2c1=O (centres undefined) | – | > 100 µM (inactive) | > 100 µM (inactive) | > 100 µM (inactive) | > 100 µM (inactive) | > 100 µM (inactive) | 46.3 µM (inactive) | > 100 µM (inactive) | > 100 µM (inactive) | > 100 µM (inactive) | > 100 µM (inactive) | > 100 µM (inactive) | > 100 µM (inactive) | – | 57 µM (inactive) | > 100 µM (inactive) | – | – | – | –
Nc1ccn(CCO)c(=O)n1 | > 100 µM (inactive) | > 100 µM (inactive) | > 100 µM (inactive) | > 100 µM (inactive) | > 100 µM (inactive) | > 100 µM (inactive) | > 100 µM (inactive) | – | > 100 µM (inactive) | > 100 µM (inactive) | > 100 µM (inactive) | > 100 µM (inactive) | > 100 µM (inactive) | > 100 µM (inactive) | > 100 µM (inactive) | > 100 µM (inactive) | – | – | – | –
O=C(/C=C/c1ccccc1)CC(=O)CCC(=O)Nc1ccc(Cl)cc1 | > 100 µM (inactive) | 28.3 µM (inactive) | – | > 100 µM (inactive) | 88.9 µM (inactive) | 23.6 µM (inactive) | > 100 µM (inactive) | > 100 µM (inactive) | > 100 µM (inactive) | > 100 µM (inactive) | – | 29.2 µM (inactive) | > 100 µM (inactive) | > 100 µM (inactive) | > 100 µM (inactive) | > 100 µM (inactive) | – | – | – | –
C[C@@]12[Se]c3ccccc3[C@]1(C)[Se]c1ccccc12 | – | > 100 µM (inactive) | – | > 100 µM (inactive) | 3.79 µM (inactive) | > 100 µM (inactive) | 4.05 µM (inactive) | – | 54.6 µM (inactive) | 3.85 µM (inactive) | 2.75 µM (inactive) | > 100 µM (inactive) | > 100 µM (inactive) | – | 2.74 µM (inactive) | – | – | – | – | –
O=C(O)C(O)C(O)C(O)C(=O)CO (centres undefined) | > 100 µM (inactive) | > 100 µM (inactive) | > 100 µM (inactive) | > 100 µM (inactive) | > 100 µM (inactive) | > 100 µM (inactive) | > 100 µM (inactive) | > 100 µM (inactive) | > 100 µM (inactive) | > 100 µM (inactive) | > 100 µM (inactive) | – | > 100 µM (inactive) | > 100 µM (inactive) | > 100 µM (inactive) | > 100 µM (inactive) | > 100 µM (inactive) | > 100 µM (inactive) | > 100 µM (inactive) | > 100 µM (inactive)
CC(=O)C1=C(O)C2C3c4c[nH]c5cccc(c45)CC3C(C)(C)N2C1=O (centres undefined) | 15.6 µM (inactive) | > 100 µM (inactive) | 21.6 µM (inactive) | 46.5 µM (inactive) | 34.4 µM (inactive) | 28.2 µM (inactive) | 11.9 µM (inactive) | 15.4 µM (inactive) | 17.1 µM (inactive) | 13.1 µM (inactive) | – | 40.8 µM (inactive) | – | 20.1 µM (inactive) | 3.05 µM (inactive) | > 100 µM (inactive) | – | – | – | –
CN(C)CCNC(=O)c1cccc2c(Nc3ccc(S(N)(=O)=O)cc3)c3ccccc3nc12 | 0.536 µM (active) | 1.67 µM (inactive) | 1.57 µM (inactive) | 1.97 µM (inactive) | 1.26 µM (inactive) | 1.47 µM (inactive) | 0.252 µM (active) | 1.05 µM (active) | 1.02 µM (active) | 1.59 µM (inactive) | – | 1.72 µM (inactive) | 0.435 µM (active) | 1.69 µM (inactive) | 0.228 µM (active) | 0.376 µM (active) | – | – | – | –
O=C(CCc1cccc(O)c1)NCCc1cccc(O)c1 | > 100 µM (inactive) | > 100 µM (inactive) | > 100 µM (inactive) | > 100 µM (inactive) | > 100 µM (inactive) | > 100 µM (inactive) | > 100 µM (inactive) | > 100 µM (inactive) | > 100 µM (inactive) | > 100 µM (inactive) | > 100 µM (inactive) | – | > 100 µM (inactive) | > 100 µM (inactive) | > 100 µM (inactive) | > 100 µM (inactive) | > 100 µM (inactive) | > 100 µM (inactive) | > 100 µM (inactive) | > 100 µM (inactive)
